Results on six molecules are retold here after patent US20260335320A1, “ANTI-VIRULENCE AGENTS AND METHODS FOR THE TREATMENT OF PATHOGENIC BACTERIUM” (priority 2023, published 2026).

Where two headings read alike, the source gives them in different places.

Data set [1] concerns B. dolosa strain AU0158. Nature of the data set: Invasion of and/or intracellular survival in THP-1-derived macrophages, antibiotic exclusion assay. In kind it is cell-based, B. dolosa strain AU0158 (in human THP-1-derived macrophages).
The subject of data set [2] is Mycobacterium abscessus. Nature of the data set: Intracellular invasion/survival in THP-1-derived macrophages. In kind it is cell-based. To be noted: 25 μM, 2 h plus 2 h with amikacin. Here is the method:
FIG. 9. BFA compounds reduce the virulence of M. abscessus. FIG. 9 provides a graph showing the results after THP-1-derived macrophages were infected with ~5×10^5 CFU/M. abscessus strain ATCC19977 and 25 μM of the indicated BFA or DMSO vehicle control for 2 hours. Cells were washed and treated with the same BFA and 500 μg/mL amikacin (to kill extracellular bacteria) for 2 hours.
To determine whether BFA compounds could inhibit the virulence of Mycobacterium abscessus THP-1-derived macrophages were used.

The test system of data set [3] is B. multivorans. Nature of the data set: Invasion/intracellular survival in THP-1-derived macrophages. In kind it is cell-based. To be noted: 4 h.
In data set [4] the test system is B. thailandensis. The experiment in a line: microbe, parasite or virus in culture. In kind it is cell-based.
For data set [5], the system named is B. cenocepacia. The experiment in a line: Invasion/intracellular survival in THP-1-derived macrophages. In kind it is cell-based. To be noted: 4 h.
Data set [6] has as its system P. aeruginosa strain PA14. Nature of the data set: P. aeruginosa-induced cytotoxicity of A549 cells (LDH release). Conditions: 25 μM, 5.5 hours. (In general: Release of lactate dehydrogenase indicates damage to the cell membrane.)
In data set [7] the test system is Burkholderia FixLJ pathway (Fix-GFP reporter in B. multivorans strain VC7102). Nature of the data set: Fix-GFP reporter activation screen (GFP fluorescence).

As for `CCCCCCc1cc2cc(-c3nnc(-c4ccc(C)cc4)o3)c(=O)oc2cc1O` [BFA1, 6-HEXYL-7-HYDROXY-3-[5-(4-METHYLPHENYL)-1,3,4-OXADIAZOL-2-YL]-2H-CHROMEN-2-ONE], the “inhibition of invasion/survival of B. dolosa in macrophages” value in data set [1] is “inhibited virulence at a lower concentration and at a greater magnitude than the other BFA compounds”; in data set [1] (for BFA 2-8 at highest dose tested) it was ~ 75%. In data set [2], the “inhibition of intracellular invasion/survival of M. abscessus” value is reported as “able to inhibit the intracellular invasion/survival within the macrophages”. Also, the “inhibition of invasion/survival of B. multivorans” value in data set [3] (25 μM, THP-1-derived macrophages) is “inhibited the invasion/survival of all three additional Burkholderia species”. For the same molecule, the minimal effective concentration in data set [3] (Burkholderia multivorans, Macrophage, read-out: dose inhibiting invasion/survival of B. multivorans) is 6.25 µM; in data set [4] (Burkholderia thailandensis, Macrophage, 2 h, read-out: dose inhibiting invasion/survival of B. thailandensis) it was 6.25 µM. Besides, the “inhibition of invasion/survival of B. thailandensis” value in data set [4] (25 μM, 4 h) was “able to inhibit the invasion/survival of B. cenocepacia (FIG. 3B) and B. thailandensis”. For the same molecule, the “inhibition of invasion/survival of B. cenocepacia” value in data set [5] (25 μM) was “able to inhibit the invasion/survival of B. cenocepacia”. The “dose needed to inhibit B. cenocepacia” value in data set [5] (dose range, compared with 6.25 μM) is given as “higher doses were needed to inhibit B. cenocepacia”.

Take `COCCNC(=O)CCn1c(=O)c2cc(OC)c(OC)cc2n(CC(=O)Nc2ccccc2OC)c1=O` [BFA2, 3-(6,7-Dimethoxy-1-{[(2-Methoxyphenyl)Carbamoyl]Methyl}-2,4-Dioxo-1,2,3,4-Tetrahydroquinazolin-3-Yl)-N-(2-Methoxyethyl)Propanamide]: the “inhibition of intracellular invasion/survival of M. abscessus” value in data set [2] is “able to inhibit the intracellular invasion/survival within the macrophages”.

For the molecule `CCc1ccccc1N1CC(c2nc3ccccc3n2CCCCOc2ccccc2)CC1=O` (centres unmarked) [BFA3, 1-(2-ETHYLPHENYL)-4-[1-(4-PHENOXYBUTYL)-1H-1,3-BENZODIAZOL-2-YL]PYRROLIDIN-2-ONE], the “inhibition of PA14-induced cytotoxicity” value in data set [6] was “able to significantly reduce cytotoxicity”. For the same molecule, the “inhibition of intracellular invasion/survival of M. abscessus” value in data set [2] is on record as “able to inhibit the intracellular invasion/survival within the macrophages”.

For `Cc1ccccc1-n1c(/C=C/c2ccc(N(C)C)cc2)nc2ccccc2c1=O` [BFA6, 2-[(1E)-2-[4-(DIMETHYLAMINO)PHENYL]ETHENYL]-3-(2-METHYLPHENYL)-3,4-DIHYDROQUINAZOLIN-4-ONE], in data set [6], the “inhibition of PA14-induced cytotoxicity” value is reported as “able to significantly reduce cytotoxicity”. In addition, the “inhibition of invasion/survival of B. thailandensis” value in data set [4] is “able to inhibit the invasion/survival of B. thailandensis”.

As to `CCCCN(C)CCCNC(=O)Cn1ncc2c3ccccc3n(Cc3cccc(Cl)c3)c2c1=O` [BFA7, N-{3-[Butyl(Methyl)Amino]Propyl}-2-{5-[(3-Chlorophenyl)Methyl]-4-Oxo-3h,4h,5h-Pyridazino[4,5-B]Indol-3-Yl}Acetamide], in data set [6], the “inhibition of PA14-induced cytotoxicity” value is “able to significantly reduce cytotoxicity”. Moreover, the “inhibition of intracellular invasion/survival of M. abscessus” value in data set [2] is “able to inhibit the intracellular invasion/survival within the macrophages”.

Consider `NC(CO)C(=O)NNCc1ccc(O)c(O)c1O` (centres unmarked) [Benserazide, benserazide], for which, in data set [7], the “GFP activity above the mean of the negative control (DMSO)” value is “more than 3 standard deviations”.
